Read-outs that look alike come from different tables or passages of the source.
Target: human NaV 1.8 (Homo sapiens, UniProt Q9Y5Y9)
Test: E-VIPR assay detecting and measuring NaV inhibition properties
Type: cell-based
Details: HEK cells expressing truncated human NaV 1.8
In short: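 Membrane potential was followed by coumarin/oxonol FRET during electrical field stimulation of matrigel-seeded HEK cells carrying truncated human NaV1.8 plus KIR2.1. Dosing used 11 points, 3-fold steps, top 300 nM final, 0.625% DMSO, with or without 25% human serum.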

[1] = no human serum, read-out: IC50 in the E-VIPR Assay
[2] = in the presence of human serum (compound numbers followed by *), read-out: IC50 in the E-VIPR Assay, performed in the presence of human serum

human NaV 1.8, sequence (Q9Y5Y9 126-399 limits assumed): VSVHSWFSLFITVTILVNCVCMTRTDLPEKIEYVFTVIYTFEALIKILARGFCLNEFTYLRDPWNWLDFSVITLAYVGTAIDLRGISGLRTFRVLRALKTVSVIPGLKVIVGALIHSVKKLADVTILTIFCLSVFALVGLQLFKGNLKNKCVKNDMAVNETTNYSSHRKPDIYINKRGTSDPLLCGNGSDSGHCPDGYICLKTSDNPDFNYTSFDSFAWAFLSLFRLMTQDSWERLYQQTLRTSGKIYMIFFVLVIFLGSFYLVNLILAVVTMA
human NaV 1.8, sequence (Q9Y5Y9 660-890 limits assumed): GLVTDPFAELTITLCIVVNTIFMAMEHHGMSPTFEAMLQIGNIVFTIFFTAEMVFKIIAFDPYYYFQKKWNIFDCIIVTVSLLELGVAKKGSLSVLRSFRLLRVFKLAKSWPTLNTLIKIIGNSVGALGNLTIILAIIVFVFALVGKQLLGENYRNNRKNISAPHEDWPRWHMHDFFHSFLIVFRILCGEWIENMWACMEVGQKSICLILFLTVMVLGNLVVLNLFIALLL
human NaV 1.8, sequence (Q9Y5Y9 1148-1722 limits assumed): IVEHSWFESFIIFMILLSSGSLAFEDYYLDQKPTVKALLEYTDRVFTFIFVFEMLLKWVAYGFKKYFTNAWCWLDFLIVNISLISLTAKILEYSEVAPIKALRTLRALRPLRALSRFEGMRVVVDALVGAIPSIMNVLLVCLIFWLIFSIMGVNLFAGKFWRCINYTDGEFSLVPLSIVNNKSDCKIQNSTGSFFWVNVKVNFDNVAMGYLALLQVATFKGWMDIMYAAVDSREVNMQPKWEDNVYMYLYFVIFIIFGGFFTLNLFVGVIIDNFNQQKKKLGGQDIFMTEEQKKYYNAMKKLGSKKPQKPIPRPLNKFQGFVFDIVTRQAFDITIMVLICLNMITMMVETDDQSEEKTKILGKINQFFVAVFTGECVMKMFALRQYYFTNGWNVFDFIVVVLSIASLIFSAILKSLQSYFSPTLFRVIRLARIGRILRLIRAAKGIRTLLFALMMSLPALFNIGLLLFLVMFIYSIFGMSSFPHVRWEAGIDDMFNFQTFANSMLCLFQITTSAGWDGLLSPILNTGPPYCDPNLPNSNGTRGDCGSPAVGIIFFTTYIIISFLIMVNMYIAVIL

Structure (SMILES) | IC50 [1] [nM] | IC50 [2] [nM]
COc1c([C@H]2[C@H](C(=O)NC(C)c3cnn(C)c3)O[C@@](C)(C(F)(F)F)[C@H]2C)ccc(F)c1F (stereo partly drawn) [Compound 296, (2R,3S,4S,5R)-3-(3,4-difluoro-2-methoxyphenyl)-4,5-dimethyl-N-(1-(1-methyl-1H-pyrazol-4-yl)ethyl)-5-(trifluoromethyl)tetrahydrofuran-2-carboxamide] | ≥ 1000 | 
COc1c([C@H]2[C@H](C(=O)Nc3cnnc(C(O)CO)c3)O[C@@](C)(C(F)(F)F)[C@H]2C)ccc(F)c1F (single isomer, unassigned) [Compound 206, rel-(2R*,3S*,4S*,5R*)-3-(3,4-difluoro-2-methoxyphenyl)-N-(6-(1,2-dihydroxyethyl)pyridazin-4-yl)-4,5-dimethyl-5-(trifluoromethyl)tetrahydrofuran-2-carboxamide] |  | 10 to 100
COc1c([C@@H]2[C@H](C)[C@H](C(C)C)O[C@H]2C(=O)Nc2cccnc2)ccc(F)c1F [Compound 720, (2R,3S,4S,5S)-3-(3,4-difluoro-2-methoxyphenyl)-5-isopropyl-4-methyl-N-(pyridin-3-yl)tetrahydrofuran-2-carboxamide] | 100 to 1000 | 
C[C@H]1[C@@H](c2ccc(F)c(F)c2OCCO)[C@H](C(=O)Nc2ccnn2C)O[C@@]1(C)C(F)(F)F [Compound 547, (2R,3S,4S,5R)-3-(3,4-difluoro-2-(2-hydroxyethoxy)phenyl)-4,5-dimethyl-N-(1-methyl-1H-pyrazol-5-yl)-5-(trifluoromethyl)tetrahydrofuran-2-carboxamide] | 100 to 1000 | 
CCOc1c([C@@H]2[C@@H](C(=O)Nc3ccnc(S(C)(=N)=O)c3)O[C@](C)(C(F)(F)F)[C@@H]2C)ccc(F)c1F (single isomer, unassigned) [Compound 10] | 100 to 1000 | 
COc1c([C@H]2[C@H](C(=O)Nc3ncc(O)cn3)O[C@@](C)(C(F)(F)F)[C@H]2C)ccc(F)c1F [Compound 444, (2R,3S,4S,5R)-3-(3,4-difluoro-2-methoxy-phenyl)-N-(5-hydroxypyrimidin-2-yl)-4,5-dimethyl-5-(trifluoromethyl)tetrahydrofuran-2-carboxamide] | 100 to 1000 | 
COc1c([C@H]2[C@H](C(=O)NCCc3c(C)n[nH]c3C)O[C@@](C)(C(F)(F)F)[C@H]2C)ccc(F)c1F [Compound 285, (2R,3S,4S,5R)-3-(3,4-difluoro-2-methoxyphenyl)-N-(2-(3,5-dimethyl-1H-pyrazol-4-yl)ethyl)-4,5-dimethyl-5-(trifluoromethyl)tetrahydrofuran-2-carboxamide] | ≥ 1000 | 
CNCc1cc(NC(=O)[C@@H]2O[C@@](C)(C(F)(F)F)[C@@H](C)[C@H]2c2ccc(F)c(F)c2OC)c(F)cn1 (single isomer, unassigned) [Compound 13, 3-(3,4-difluoro-2-methoxy-phenyl)-N-[5-fluoro-2-(methylaminomethyl)-4-pyridyl]-4,5-dimethyl-5-(trifluoromethyl)tetrahydrofuran-2-carboxamide] |  | 10 to 100
C[C@H]1[C@@H](c2ccc(F)c(F)c2OCCN2CC3(COC3)C2)[C@H](C(=O)Nc2ccc3nncn3c2)O[C@@]1(C)C(F)(F)F [Compound 620, (2R,3S,4S,5R)-3-(2-(2-(2-oxa-6-azaspiro[3.3]heptan-6-yl)ethoxy)-3,4-difluorophenyl)-N-([1,2,4]triazolo[4,3-a]pyridin-6-yl)-4,5-dimethyl-5-(trifluoromethyl)tetrahydrofuran-2-carboxamide] | 10 to 100 | 
COc1c([C@H]2[C@H](C(=O)Nc3cc4n(n3)CCOC4)O[C@@](C)(C(F)(F)F)[C@H]2C)ccc(F)c1F [Compound 321, (2R,3S,4S,5R)-3-(3,4-difluoro-2-methoxyphenyl)-N-(6,7-dihydro-4H-pyrazolo[5,1-c][1,4]oxazin-2-yl)-4,5-dimethyl-5-(trifluoromethyl)-tetrahydrofuran-2-carboxamide] | ≥ 1000 | 
C[C@H]1[C@@H](c2ccc(F)c(F)c2OC(F)F)[C@H](C(=O)Nc2ccc(=O)n(C)c2)O[C@@]1(C)C(F)(F)F (single isomer, unassigned) [Compound 68] | 10 to 100 | 
CCOc1c([C@@H]2[C@@H](C(=O)Nc3ccn4nnnc4c3)O[C@](C)(C(F)(F)F)[C@@H]2C)ccc(F)c1C (stereo in doubt) [Compound 122, rel-(2S,3R,4R,5S)-3-(2-ethoxy-4-fluoro-3-methylphenyl)-4,5-dimethyl-N-(tetrazolo[1,5-a]pyridin-7-yl)-5-(trifluoromethyl)tetrahydrofuran-2-carboxamide] | 100 to 1000 | 
COc1c([C@H]2[C@H](C(=O)Nc3cnc(C(C)(C)O)nc3)O[C@@](C)(C(F)(F)F)[C@H]2C)ccc(F)c1F [Compound 390, (2R,3S,4S,5R)-3-(3,4-difluoro-2-methoxyphenyl)-N-(2-(2-hydroxypropan-2-yl)pyrimidin-5-yl)-4,5-dimethyl-5-(trifluoromethyl)tetrahydrofuran-2-carboxamide] | 10 to 100 | 
COCC(c1ccc(NC(=O)[C@@H]2O[C@@](C)(C(F)(F)F)[C@@H](C)[C@H]2c2ccc(F)c(F)c2OC)cn1)N1CCC1 (single isomer, unassigned) [Compound 407, rel-(2R*,3S*,4S*,5R*)-N-(6-(1-(azetidin-1-yl)-2-methoxyethyl)-pyridin-3-yl)-3-(3,4-difluoro-2-methoxyphenyl)-4,5-dimethyl-5-(trifluoromethyl)-tetrahydrofuran-2-carboxamide] | ≥ 1000 | 

Continued, values first:

IC50 [1] [nM] | IC50 [2] [nM] | Structure (SMILES)
< 10 |  | COCC(C)(N)c1cc(NC(=O)[C@@H]2O[C@@](C)(C(F)(F)F)[C@@H](C)[C@H]2c2ccc(F)c(F)c2OC)c(F)cn1 (single isomer, unassigned) [Compound 354, rel-(2R*,3S*,4S*,5R*)-N-(2-(2-amino-1-methoxypropan-2-yl)-5-fluoropyridin-4-yl)-3-(3,4-difluoro-2-methoxyphenyl)-4,5-dimethyl-5-(trifluoromethyl)-tetrahydrofuran-2-carboxamide]
10 to 100 |  | COc1c([C@H]2[C@H](C(=O)Nc3ccc(C#N)nc3)O[C@@](C)(C(F)(F)F)[C@H]2C)ccc(F)c1F [Compound 192, (2R,3S,4S,5R)-N-(6-cyanopyridin-3-yl)-3-(3,4-difluoro-2-methoxyphenyl)-4,5-dimethyl-5-(trifluoromethyl)tetrahydrofuran-2-carboxamide]
< 10 |  | COc1c([C@H]2[C@H](C(=O)Nc3ccnc(N(C)C(=O)CN(C)C)c3)O[C@@](C)(C(F)(F)F)[C@H]2C)ccc(F)c1F [Compound 522, (2R,3S,4S,5R)-3-(3,4-difluoro-2-methoxy-phenyl)-N-[2-[[2-(dimethylamino)acetyl]-methyl-amino]-4-pyridyl]-4,5-dimethyl-5-(trifluoromethyl)tetrahydrofuran-2-carboxamide]
10 to 100 |  | Cc1nocc1NC(=O)[C@@H]1O[C@@](C)(C(F)(F)F)[C@@H](C)[C@H]1c1ccc(F)c(F)c1OCCN1CC(OC(F)F)C1 [Compound 628, (2R,3S,4S,5R)-3-(2-(2-(3-(difluoromethoxy)azetidin-1-yl)ethoxy)-3,4-difluorophenyl)-4,5-dimethyl-N-(3-methylisoxazol-4-yl)-5-(trifluoromethyl)tetrahydrofuran-2-carboxamide]
10 to 100 |  | C[C@H]1[C@@H](c2ccc(F)c(F)c2OCCO)[C@H](C(=O)Nc2ccc(C(F)F)nc2)O[C@@]1(C)C(F)(F)F [Compound 571, (2R,3S,4S,5R)-3-(3,4-difluoro-2-(2-hydroxyethoxy)phenyl)-N-(6-(difluoromethyl)pyridin-3-yl)-4,5-dimethyl-5-(trifluoromethyl)tetrahydrofuran-2-carboxamide]
< 10 |  | COc1c([C@H]2[C@H](C(=O)Nc3ccc(C(N)=O)nc3)O[C@@](C)(C(F)(F)F)[C@H]2C)cc(O)c(F)c1F [Compound 733, 5-((2R,3S,4S,5R)-3-(3,4-difluoro-5-hydroxy-2-methoxyphenyl)-4,5-dimethyl-5-(trifluoromethyl)tetrahydrofuran-2-carboxamido)picolinamide]
10 to 100 |  | Cc1nocc1NC(=O)[C@@H]1O[C@@](C)(C(F)(F)F)[C@@H](C)[C@H]1c1ccc(F)c(F)c1OCCN1CC(C(F)F)C1 [Compound 629, (2R,3S,4S,5R)-3-(2-(2-(3-(difluoromethyl)azetidin-1-yl)ethoxy)-3,4-difluorophenyl)-4,5-dimethyl-N-(3-methylisoxazol-4-yl)-5-(trifluoromethyl)tetrahydrofuran-2-carboxamide]
< 10 |  | C[C@H]1[C@@H](c2ccc(F)c(F)c2OC(F)F)[C@H](C(=O)Nc2ccn3nnnc3c2)O[C@@]1(C)C(F)(F)F (single isomer, unassigned) [Compound 80]
< 10 |  | C[C@H]1[C@@H](c2ccc(F)c(F)c2OC(F)F)[C@H](C(=O)Nc2ccnc(N3CCN(C)CC3=O)c2)O[C@@]1(C)C(F)(F)F [Compound 516, (2R,3S,4S,5R)-3-[2-(difluoromethoxy)-3,4-difluoro-phenyl]-4,5-dimethyl-N-[2-(4-methyl-2-oxo-piperazin-1-yl)-4-pyridyl]-5-(trifluoromethyl)tetrahydrofuran-2-carboxamide]
10 to 100 |  | C[C@H]1[C@@H](c2ccc(F)c(F)c2OCCO)[C@H](C(=O)Nc2cncs2)O[C@@]1(C)C(F)(F)F [Compound 555, (2R,3S,4S,5R)-3-(3,4-difluoro-2-(2-hydroxyethoxy)phenyl)-4,5-dimethyl-N-(thiazol-5-yl)-5-(trifluoromethyl)tetrahydrofuran-2-carboxamide]
10 to 100 |  | COc1c([C@H]2[C@H](C(=O)Nc3ccc(C(F)CO)nc3)O[C@@](C)(C(F)(F)F)[C@H]2C)ccc(F)c1F (single isomer, unassigned) [Compound 438, rel-(2R*,3S*,4S*,5R*)-3-(3,4-difluoro-2-methoxyphenyl)-N-(6-(1-fluoro-2-hydroxyethyl)pyridin-3-yl)-4,5-dimethyl-5-(trifluoromethyl)tetrahydrofuran-2-carboxamide]
